Measured values reported in PubChem BioAssay (NCI).
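Cells were grown in 96-well plates and exposed to each compound for 48 hours at five concentrations; endpoints were interpolated linearly between bracketing concentrations, or set to the highest concentration if not reached. Abbreviation: GI50, concentration required for 50% inhibition of growth. The concentration for full growth arrest is given as TGI.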

Tests used:
Experiment in all cases: DTP human tumour cell line panel, 48 h
[1] = tested on: CCRF-CEM leukemia
[2] = tested on: HCT-15 colon
[3] = tested on: HT29 colon
[4] = tested on: K-562 leukemia
[5] = tested on: MOLT-4 leukemia
[6] = tested on: OVCAR-8 ovarian
[7] = tested on: U251 CNS
[8] = tested on: DU-145 prostate
[9] = tested on: MDA-MB-435
[10] = tested on: MCF7 breast

O=C(N/C(=C\c1c(O)ccc2ccccc12)c1nc2ccccc2[nH]1)c1ccccc1
TGI [1]: > 100 µM | TGI [2]: > 100 µM | TGI [3]: > 100 µM | TGI [4]: > 100 µM | TGI [5]: > 100 µM | TGI [6]: > 100 µM | TGI [7]: > 100 µM

O=c1cc(-c2ccccc2)oc2ccc(OC/C(=N/O)c3ccc(F)cc3)cc12
GI50 [1]: 3.24 µM | TGI [1]: 17.1 µM | GI50 [8]: 3.1 µM | TGI [8]: 15.6 µM | GI50 [2]: 2.99 µM | TGI [2]: 14.5 µM | GI50 [3]: 2.1 µM | TGI [3]: 41.6 µM | GI50 [4]: 2.61 µM | TGI [4]: > 50 µM | GI50 [9]: 0.913 µM | TGI [9]: 1.98 µM | GI50 [5]: 3.54 µM | TGI [5]: > 50 µM | GI50 [6]: 8.44 µM | TGI [6]: > 50 µM | GI50 [7]: 3.03 µM | TGI [7]: 43.7 µM

O=C(Nc1cc(Cl)ccc1Cl)c1cc2cccc(Br)c2oc1=O
TGI [1]: > 100 µM | TGI [2]: > 100 µM | TGI [3]: > 100 µM | TGI [4]: > 100 µM | TGI [5]: > 100 µM | TGI [6]: > 100 µM | TGI [7]: > 100 µM

O=c1nc(NC(c2ccccc2)(c2ccccc2)c2ccccc2)ccn1CCCl
TGI [2]: > 100 µM | TGI [3]: 35 µM | TGI [4]: 63.3 µM | TGI [5]: 42.3 µM | TGI [6]: 29.7 µM | TGI [7]: 28.7 µM

CSC(=Nc1ccccc1Cl)NC(=O)c1ccc(Br)cc1
TGI [2]: > 100 µM | TGI [3]: > 100 µM | TGI [4]: 45 µM | TGI [5]: 54.9 µM | TGI [6]: > 100 µM | TGI [7]: > 100 µM

COc1cc(O)c(C(=O)CC(C)=O)c(OC)c1
TGI [1]: > 100 µM | TGI [3]: > 100 µM | TGI [4]: > 100 µM | TGI [5]: > 100 µM | TGI [6]: > 100 µM | TGI [7]: > 100 µM

CCCN(CCC)CCc1cc(C(C)=O)n(S(=O)(=O)c2ccc(C)cc2)c1
TGI [1]: > 100 µM | TGI [2]: > 100 µM | TGI [3]: > 100 µM | TGI [4]: > 100 µM | TGI [5]: > 100 µM | TGI [6]: > 100 µM | TGI [7]: > 100 µM

CCN(CCCl)CCCCCNc1c2ccccc2nc2ccc(OC)cc12
TGI [1]: 2.78 µM | TGI [2]: 10.9 µM | TGI [3]: 2.94 µM | TGI [4]: 1.06 µM | TGI [5]: 0.279 µM | TGI [6]: 1.96 µM | TGI [7]: 2.23 µM

Cc1cc2c(c3nocc13)C(=O)c1ccccc1C2=O
TGI [1]: > 100 µM | TGI [2]: > 100 µM | TGI [3]: > 100 µM | TGI [4]: > 100 µM | TGI [5]: > 100 µM | TGI [6]: > 100 µM | TGI [7]: > 100 µM

O=C(O)/C=C/c1ccc[c]([Sb](=[O])([OH])[OH])c1
GI50 [8]: > 100 µM | TGI [8]: > 100 µM | GI50 [2]: > 100 µM | TGI [2]: > 100 µM | GI50 [3]: > 100 µM | TGI [3]: > 100 µM | GI50 [4]: > 100 µM | TGI [4]: > 100 µM | GI50 [9]: > 100 µM | TGI [9]: > 100 µM | GI50 [5]: > 100 µM | TGI [5]: > 100 µM | GI50 [6]: > 100 µM | TGI [6]: > 100 µM | GI50 [7]: > 100 µM | TGI [7]: > 100 µM

CCN(CC)CCCOc1ccc2ncnc(Nc3ccc(Oc4cccc(C(F)(F)F)c4)c(Cl)c3)c2c1
GI50 [1]: 2.26 µM | TGI [1]: 14.2 µM | GI50 [8]: 1.39 µM | TGI [8]: 2.74 µM | GI50 [4]: 1.21 µM | TGI [4]: 8.73 µM | GI50 [9]: 1.65 µM | TGI [9]: 3.22 µM | GI50 [5]: 1.88 µM | TGI [5]: 4.49 µM

CN(C)CCNC(=O)c1cccc2nc3ccc4cccnc4c3nc12
TGI [1]: 13.1 µM | TGI [2]: 2.33 µM | TGI [3]: 4.88 µM | TGI [4]: 13.4 µM | TGI [5]: 0.763 µM | TGI [6]: 7.42 µM | TGI [7]: 4.39 µM

O=C1NC(=O)C(=Cc2c3ccccc3cc3ccccc23)C(=O)N1
TGI [1]: > 100 µM | TGI [2]: > 100 µM | TGI [3]: > 100 µM | TGI [4]: > 100 µM | TGI [5]: > 100 µM | TGI [6]: > 100 µM | TGI [7]: > 100 µM

CC(C)=O.O=C([O-])C(F)(F)F.O=C([O-])C(F)(F)F.O=C([O-])C(F)(F)F.O=C([O-])C(F)(F)F.[Rh+2].[Rh+2]
GI50 [1]: 35.5 µM | TGI [1]: > 100 µM | GI50 [2]: > 100 µM | TGI [2]: > 100 µM | GI50 [3]: > 100 µM | TGI [3]: > 100 µM | GI50 [4]: 31.8 µM | TGI [4]: > 100 µM | GI50 [5]: 15.4 µM | TGI [5]: > 100 µM | GI50 [6]: 56.1 µM | TGI [6]: > 100 µM | GI50 [7]: 47.5 µM | TGI [7]: > 100 µM

CC(C)(CN1CCOCC1)C(=O)/C=C/c1ccc(/C=C/C(=O)C(C)(C)CN2CCOCC2)cc1
TGI [1]: 4.77 µM | TGI [2]: 4.03 µM | TGI [3]: 1.88 µM | TGI [5]: 0.694 µM | TGI [6]: 7.52 µM | TGI [7]: 2.63 µM

COc1cc(OC)cc(-c2nc3sccn3c2/C=N/N=C(N)N)c1
GI50 [1]: 10.9 µM | TGI [1]: 19.5 µM | GI50 [2]: 8.1 µM | TGI [2]: 14.9 µM | GI50 [3]: 8.14 µM | TGI [3]: 14.9 µM | GI50 [4]: 9.7 µM | TGI [4]: 19 µM | GI50 [10]: 9.41 µM | TGI [10]: 20.1 µM | GI50 [9]: 8.71 µM | TGI [9]: 16.1 µM | GI50 [5]: 10.9 µM | TGI [5]: 18.6 µM | GI50 [6]: 9.85 µM | TGI [6]: 20.8 µM | GI50 [7]: 5.2 µM | TGI [7]: 11.1 µM
